According to publication PMC10825690, “Crystal structures of human immune protein FIBCD1 suggest an extended binding site compatible with recognition of pathogen-associated carbohydrate motifs” (The Journal of Biological Chemistry, 2023):
Positions count from the first letter of the chain named.

How the values were obtained:
FIBCD1-FReD [1] = target: T1, FIBCD1-FReD (Homo sapiens, UniProt Q8N539); assay: Microscale thermophoresis (MST) affinity assay; format: binding; conditions: for Kd: labeled FIBCD1-FReD 30 nM, TBS/Tw 5 mM CaCl2, 25 °C, mean ± SD, three to four measurements
T1 construct: FIBCD1-FReD (residues 236–461) was expressed in Sf9 insect cells; made in house; host or cells: Sf9 insect cells (pNT-Bac vector)
T1 sequence (Q8N539 236-461): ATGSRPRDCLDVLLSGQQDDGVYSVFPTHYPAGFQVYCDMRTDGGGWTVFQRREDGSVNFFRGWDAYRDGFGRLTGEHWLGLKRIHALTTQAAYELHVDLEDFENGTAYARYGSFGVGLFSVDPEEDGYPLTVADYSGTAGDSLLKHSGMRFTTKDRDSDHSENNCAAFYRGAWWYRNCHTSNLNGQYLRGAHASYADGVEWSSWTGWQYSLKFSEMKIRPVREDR
Procedure: (§1) The binding of FIBCD1-FReD with GlcNAc, (GlcNAc)3, and longer N-acetylchitooligosaccharides of defined length ((GlcNAc)5 and (GlcNAc)11) was investigated by ELISA. The relative affinity for these carbohydrates was assessed by inhibiting the binding of FIBCD1 to immobilized acetylated bovine serum albumin (AcBSA) in microtiter plates. […] The ligand-binding properties of FIBCD1-FReD were further evaluated using microscale thermophoresis (MST) measurements.
(§2) The cloning, expression, and purification of FIBCD1-FReD have been described in detail ([1]). Briefly, for the protein used for the ligand-bound crystal structures, the initial enzyme-linked immunosorbent inhibition assay (ELISA) and the MST affinity assay, FIBCD1-FReD (residues 236–461) was expressed in Sf9 insect cells using the pNT-Bac vector expression system. The recombinant FIBCD1-FReD variants used for the native crystal structure and for the repeated measurements of (GlcNAc)n n = 1, 2, 3 inhibition by ELISA, the same fragments of FIBCD1-FReD (wildtype, H396A, and K381L) were expressed in Chinese hamster ovary (CHO) cells using the ExpiCHO expression system (ThermoFisher Scientific) with FIBCD1-FReD (including the IgG K signal peptide for secretion) cloned into the pcDNA3.1+ plasmid (Genscript). Purification of the FIBCD1-FReD variants, regardless of the expression system, was achieved through affinity chromatography using acetylated Toyopearl AF-Amino-650M resin (Tosoh) followed by ion-exchange chromatography using a Resource Q ion-exchange column (GE Healthcare) as outlined in Schlosser et al. (Ref ([1])).
The affinity between recombinant FIBCD1-FReD and the acetylated sugars GlcNAc, (GlcNAc)5 and ManNAc as well as AcBSA was determined by MST. FIBCD1-FReD expressed by insect cells was labeled using the Monolith NT Protein Labeling Kit RED-NHS (NanoTemper Technologies) according to the manufacturer’s instructions. Removal of unreacted dye was performed with the supplied columns equilibrated in TBS containing 5 mM CaCl2. Labeled FIBCD1-FReD was diluted in assay buffer (TBS/Tw containing 5 mM CaCl2) and used at a constant concentration of 30 nM throughout the experiments, whereas the putative ligands were titrated in 2-fold dilutions, ranging from 0.6 nM to 10 μM (AcBSA), 100 μM to 200 mM (GlcNAc), 50 μM to 100 mM (GlcNAc)5, and 250 μM to 500 mM (ManNAc). For the measurements, all ligands were incubated with labeled FIBCD1-FReD for 20 min at RT (21–22 °C) before being loaded into standard capillaries (NanoTemper Technologies). […] Data from three to four independently pipetted experiments were analyzed using the NanoTemper Analysis 1.2.20 software and used to fit the data for determination of the Kd values.

FIBCD1-FReD [2] = target: T1, FIBCD1-FReD; assay: ELISA inhibition of FIBCD1-FReD (insect cell expressed) binding to immobilized AcBSA; conditions: insect cell expressed FIBCD1-FReD 50 ng/ml, 5 mM CaCl2, mean ± SD, three to four experiments
Procedure: as §1, §2
(§3) The specificity of the binding of recombinant FIBCD1-FReD, expressed in insect cells, to AcBSA was assayed in technical duplicates by inhibition with acetylated compounds, including GlcNAc (Sigma-Aldrich) and three N-acetylchitooligosaccharides of defined length ((GlcNAc)3, (GlcNAc)5, and (GlcNAc)11) and acetylation (66%), which were kindly provided by Professor Morten Sølie (Norwegian University of Life Sciences). […]

[3] = target: T2, FIBCD1-FReD mutant variant K381L (Homo sapiens, UniProt Q8N539, K381L); assay: ELISA binding of K381L FIBCD1-FReD to AcBSA; conditions: two different detection antibodies (clones 11-14-25 and 11-14-13)
T2 construct: FIBCD1-FReD (residues 236–461) was expressed in Sf9 insect cells; IgG K signal peptide (N); made in house; host or cells: CHO cells (ExpiCHO system, pcDNA3.1+)
T2 sequence (Q8N539 236-461 K381L): T1 sequence (Q8N539 236-461) with K146L
Source text: (§4) For S1(2), the mutation K381L was chosen to block this site. In the crystal structure of the homologous protein ficolin-3 the overall topology of this pocket is similar but the Leu381 side chain extends into the site and a similar orientation in FIBCD1 would preclude the ligand binding in this pocket (see Fig. S5). […] For the S1(3) site, the mutation H396A was used. There is no significant difference in affinity for H396A compared with wildtype for each GlcNAc ligand investigated (see Fig. S6C).
as §3, with “Sciences). The monoclonal antibodies used in the study here were generated in-house at the University of Southern Denmark and chosen from a large series of monoclonal antibodies raised against the FReD domain (human) in FIBCD1-deficient mice—details for the production are given in ([3]).” for “Sciences).”

FIBCD1 = test system: FIBCD1; parameters: method as in PMID 19710473; conditions: comparison with GlcNAc; cited from earlier work
[4] = target: T3, mutant variant H396A FIBCD1-FReD (Homo sapiens, UniProt Q8N539, H396A); assay: Repeated ELISA inhibition of H396A FIBCD1-FReD (CHO expressed) binding to AcBSA; conditions: ELISA repeated measurements, mean ± SD, five experiments
T3 construct: FIBCD1-FReD (residues 236–461) was expressed in Sf9 insect cells; IgG K signal peptide (N); made in house; host or cells: CHO cells (ExpiCHO system, pcDNA3.1+)
T3 sequence (Q8N539 236-461 H396A): T1 sequence (Q8N539 236-461) with H161A
Source text: as §4, §2, §3

[5] = target: T4, wildtype (WT) FIBCD1-FReD (Homo sapiens, UniProt Q8N539); assay: Repeated ELISA inhibition of wildtype FIBCD1-FReD (CHO expressed) binding to AcBSA; conditions: ELISA repeated measurements, mean ± SD, eight experiments
T4 construct: FIBCD1-FReD (residues 236–461) was expressed in Sf9 insect cells; IgG K signal peptide (N); made in house; host or cells: CHO cells (ExpiCHO system, pcDNA3.1+)
T4 sequence (Q8N539 236-461): T1 sequence (Q8N539 236-461)
Source text: To study the finer details of short oligomer recognition, binding of GlcNAc, (GlcNAc)2, and (GlcNAc)3 was further investigated by ELISA.
as §2
as §3, with “Sciences). The monoclonal antibodies used in the study here were generated in-house at the University of Southern Denmark and chosen from a large series of monoclonal antibodies raised against the FReD domain (human) in FIBCD1-deficient mice—details for the production are given in ([3]).” for “Sciences).”

Compound | Kd (FIBCD1-FReD [1]) [µM] | IC50 (FIBCD1-FReD [2]) [µM] | IC50 [4] [µM] | IC50 [5] [µM] | further results
CC(=O)N[C@@H]1C(O)O[C@H](CO)[C@@H](O)[C@@H]1O (stereo partly drawn) [ManNAc, N-acetyl-D-mannosamine] | 31000 ± 8000 | – | – | – | –
(GlcNAc)5 | 1200 ± 400 | 100 ± 30 | – | – | fold difference in affinity (Kd) between GlcNAc and (GlcNAc)5 (FIBCD1-FReD [1]; MST, GlcNAc Kd versus (GlcNAc)5 Kd): 23 fold
AcBSA: acetylated bovine serum albumin, poly-acetylated model ligand | – | – | – | – | binding of K381L FIBCD1-FReD to AcBSA in ELISA [3]: did not bind
CC(=O)N[C@H]1[C@H]([C@H](O)[C@H](O)CO)OC(O)(C(=O)O)C[C@@H]1O (stereo partly drawn) [Neu5Ac, N-acetylneuraminic acid] | – | – | – | – | IC50 relative to GlcNAc (FIBCD1): lower IC50 than GlcNAc
CC(=O)N[C@@H]1[C@@H](O)[C@H](O)[C@@H](CO)O[C@H]1O [GlcNAc, N-acetylglucosamine] | 27000 ± 9000 | 2000 ± 220 | 2400 ± 220 | 2200 ± 190 | –
CC(=O)N[C@H]1[C@H](O[C@H]2[C@H](O)[C@@H](NC(C)=O)C(O)O[C@@H]2CO)O[C@H](CO)[C@@H](O[C@@H]2O[C@H](CO)[C@@H](O)[C@H](O)[C@H]2NC(C)=O)[C@@H]1O (stereo partly drawn) [(GlcNAc)3] | – | 500 ± 60 | 1200 ± 140 | 1100 ± 100 | –
CC(=O)N[C@H]1[C@H](O[C@H]2[C@H](O)[C@@H](NC(C)=O)C(O)O[C@@H]2CO)O[C@H](CO)[C@@H](O)[C@@H]1O (stereo partly drawn) [(GlcNAc)2, N,N′-diacetylchitobiose] | – | – | 1400 ± 110 | 1400 ± 160 | –
